Results taken from ChEMBL document CHEMBL1146541, “New cytotoxic indolic metabolites from a marine Streptomyces” (2003).
Activity calls are given as the source filed them.

Key:
K562 = test: Cytotoxicity against human K562 cells; assay type: functional
LNCaP = test: Cytotoxicity against human LNCAP cells; assay type: functional, cell-based
HMEC-1 = test: Cytotoxicity against human HMEC1 cells; assay type: functional, cell-based
PANC-1 = test: Cytotoxicity against human PANC1 cells; assay type: functional, cell-based
LoVo [1] = test: Cytotoxicity against human LoVo cells; assay type: functional, cell-based
LoVo [2] = test: Cytotoxicity against doxorubicin-resistant human LoVo cells; assay type: functional, cell-based

Measured: Activity

CC(C)=CCc1ccc2c(CC#N)c[nH]c2c1
inactive: all assays above
